Converted amounts (≈) assume the structure as drawn. Where two headings read alike, the source gives them in different places. Bridge positions count the residues as written; N and C are the ends. Square brackets hold non-standard residues; d marks the D form. Peptide text beside a SMILES is read from it. 1Nal = N[C@@H](Cc1cccc2ccccc12)C(=O)O; d(aIle) = CC[C@H](C)[C@@H](N)C(=O)O; dNMeF = CN[C@H](Cc1ccccc1)C(=O)O; hArg = N=C(N)NCCCC[C@H](N)C(=O)O
Experiments:
[1] = tested on: B. fragilis
[2] = tested on: S.aureus; type: cell-based, Staphylococcus aureus
Protocol: (§1) This assay was used to determine the minimum concentration of a test compound (i.e., an antimicrobial peptide described herein) able to inhibit the growth of a bacterial strain of interest. This is a standard method for measuring and comparing the potency of peptide-based antibacterial agents (Steinberg et al., Antimicrobial Agents and Chemotherapy 1997, 41 (8) 1738 - 1742 and Wiegand et al., Nature Protocols 2008, 3, 163-175).
(§2) The MIC is reported in units of μg/mL.
(§3) Bacterial cultures were grown by inoculating Mueller-Hinton Broth (MHB) with 3 or 4 representative colony (typical size, color, and shape) from a bacterial strain grown on a LB agar plate. Inoculated liquid cultures were grown at 37° C. with moderate shaking (200-250 rpm) until bacteria produced a visibly turbid suspension. Bacterial inoculum was approximated by measuring the optical density at 600 nm (0D600) of the bacterial culture against a sterile MHB blank. Typically, OD600=0.10 corresponds to ˜1×10^8 cfu/mL for S.aureus and OD600 =0.15 corresponds to ˜1×10^8 cfu/mL for E.coli.
(§4) Test compounds were prepared as stock solutions in vehicle at a concentration 10 times the highest concentration to be tested for antibacterial activity (usually 320 μg/mL stock solutions). 2x serial dilutions in vehicle (at 10× the final test concentrations) of the test compounds were prepared from the test compound stock solutions in a non-binding 96 well plate.
(§5) In a sterile clear flat bottom 96 well plate, 15 μL of each test compound dilution was added to 135 μL of ˜5×10^5 cfu/mL bacterial culture. Each concentration was tested in duplicate. Each experiment contained positive control wells for bacterial growth (i.e., no test compound added to bacteria) and sterility controls wells (i.e., sterile MHB and no test compounds added). 96 well plates containing bacterial cultures and test compounds were incubated at 37° C. for 16-20 hours with shaking at 200 rpm.
(§6) After incubation, the MIC of each test compound was determined by measuring the OD600 of each well using a plate reader. Wells with OD600 >0.08 were considered to have bacterial growth and wells with OD600<0.08 were considered to have no bacterial growth. The lowest concentration of test agent able to inhibit bacterial growth (0D600<0.08 after 16-20 hours) was defined as the MIC.

[3] = tested on: E.coli; type: cell-based, Escherichia coli; conditions: for MIC ratio Coli/Staph: ratio of E. coli MIC to S. aureus MIC
Protocol: as §1, §2, §3, §4, §5, §6

[4] = tested on: C. difficile
[5] = broth microdilution, Example 17a

SMILES | MIC B. fragilis [1] | MIC S. aureus [2] | MIC E. coli [3] | MIC ratio Coli/Staph [3] | MIC C. difficile [4] | MIC S. aureus [2, 5] | MIC E. coli [3, 5]
CC[C@H](C)[C@H](NC(=O)[C@@H](Cc1ccccc1)NC)C(=O)N[C@@H](CO)C(=O)N[C@H](CCC(N)=O)C(=O)N[C@@H](C(=O)N[C@H](C(=O)N[C@@H](CO)C(=O)N[C@H]1C(=O)N[C@@H](C)C(=O)N[C@@H](CCCNC(=N)N)C(=O)N[C@@H]([C@@H](C)CC)C(=O)O[C@H]1C)[C@@H](C)CC)[C@@H](C)CC [Arg10-teixobactin] | >32 µg/mL | 0.25 to 0.5 µg/mL | >16 µg/mL | >64 | 0.12 µg/mL (≈ 0.0964 µM) | – | –
CC[C@H](C)[C@H](NC(=O)[C@@H](Cc1ccccc1)NC)C(=O)N[C@@H](CCCCN)C(=O)N[C@H](CCC(N)=O)C(=O)N[C@@H](C(=O)N[C@H](C(=O)N[C@@H](CO)C(=O)N[C@H]1C(=O)N[C@@H](C)C(=O)N[C@@H](CCCCNC(=N)N)C(=O)N[C@@H]([C@@H](C)CC)C(=O)O[C@H]1C)[C@@H](C)CC)[C@@H](C)CC [Compound 1, H-D-MePhe-Ile-Lys-D-Gln-D-aIle-Ile-Ser-c(D-Thr-Ala-Har-Ile)] (H-[dNMeF]IK[dQ][d(aIle)]IS[dT]A[hArg]I; ester 8-C) | >32 µg/mL | – | – | 67 | <0.03 µg/mL | 0.06 µg/mL (≈ 0.0462 µM) | 4 µg/mL (≈ 3.08 µM)
CC[C@H](C)[C@H](NC(=O)[C@@H](Cc1ccccc1)NC)C(=O)N[C@@H](Cc1c[nH]c2ccccc12)C(=O)N[C@H](CCC(N)=O)C(=O)N[C@@H](C(=O)N[C@H](C(=O)N[C@@H](CO)C(=O)N[C@H]1C(=O)N[C@@H](C)C(=O)N[C@@H](CCCCNC(=N)N)C(=O)N[C@@H]([C@@H](C)CC)C(=O)O[C@H]1C)[C@@H](C)CC)[C@@H](C)CC [Compound 2, H-D-MePhe-Ile-Trp-D-Gln-D-aIle-Ile-Ser-c(D-Thr-Ala-Har-Ile)] | >32 µg/mL | 0.09 µg/mL (≈ 0.0663 µM) | >32 µg/mL | >356 | 0.06 µg/mL (≈ 0.0442 µM) | – | –
CC[C@H](C)[C@H](NC(=O)[C@@H](Cc1ccccc1)NC)C(=O)N[C@@H](Cc1cccc2ccccc12)C(=O)N[C@H](CCC(N)=O)C(=O)N[C@@H](C(=O)N[C@H](C(=O)N[C@@H](CO)C(=O)N[C@H]1C(=O)N[C@@H](C)C(=O)N[C@@H](CCCCN)C(=O)N[C@@H]([C@@H](C)CC)C(=O)O[C@H]1C)[C@@H](C)CC)[C@@H](C)CC [Compound 3, H-D-MePhe-Ile-1Nal-D-Gln-D-aIle-Ile-Ser-c(D-Thr-Ala-Lys-Ile)] (H-[dNMeF]I[1Nal][dQ][d(aIle)]IS[dT]AKI; ester 8-C) | – | 0.09 µg/mL (≈ 0.0678 µM) | >32 µg/mL | >356 | – | – | –
CC[C@H](C)[C@H](NC(=O)[C@H](NC(=O)[C@@H](CCC(N)=O)NC(=O)[C@H](CO)NC(=O)[C@H](CC(C)C)NC(=O)[C@@H](Cc1ccccc1)NC)[C@@H](C)CC)C(=O)N[C@@H](CO)C(=O)N[C@H]1C(=O)N[C@@H](C)C(=O)N[C@@H](CCCCN)C(=O)N[C@@H]([C@@H](C)CC)C(=O)O[C@H]1C [Compound 10, H-D-MePhe-Leu-Ser-D-Gln-D-aIle-Ile-Ser-c(D-Thr-Ala-Lys-Ile)] (H-[dNMeF]LS[dQ][d(aIle)]IS[dT]AKI; ester 8-C) | – | 0.19 µg/mL (≈ 0.156 µM) | 16 µg/mL (≈ 13.2 µM) | 84 | – | – | –
CC[C@H](C)[C@H](NC(=O)[C@@H](Cc1ccccc1)NC)C(=O)N[C@@H](CO)C(=O)N[C@H](Cc1c[nH]c2ccccc12)C(=O)N[C@@H](C(=O)N[C@H](C(=O)N[C@@H](CO)C(=O)N[C@H]1C(=O)N[C@@H](C)C(=O)N[C@@H](CCCCN)C(=O)N[C@@H]([C@@H](C)CC)C(=O)O[C@H]1C)[C@@H](C)CC)[C@@H](C)CC [Compound 13, H-D-MePhe-Ile-Ser-D-Trp-D-aIle-Ile-Ser-c(D-Thr-Ala-Lys-Ile)] (H-[dNMeF]IS[dW][d(aIle)]IS[dT]AKI; ester 8-C) | – | 0.25 µg/mL (≈ 0.196 µM) | 16 µg/mL (≈ 12.6 µM) | 64 | – | – | –

From US20200216493A1, “ANTIMICROBIAL PEPTIDES” (FERRING B.V., priority 2016, published 2020)
